Test results from the CheMixHub viscosity set.

Test: xn = mol fraction of the nth substance listed

C=COCCCC + CCOC(=O)c1ccccc1
viscosity [mPa·s], 101 kPa
Settings | x2 = 0.0939 | x2 = 0.1857 | x2 = 0.2804 | x2 = 0.3768 | x2 = 0.4748 | x2 = 0.557 | x2 = 0.6781 | x2 = 0.7812 | x2 = 0.8898
303.15 K | 0.438 | 0.499 | 0.573 | 0.663 | 0.769 | 0.877 | 1.061 | 1.25 | 1.482
308.15 K | 0.425 | 0.482 | 0.55 | 0.633 | 0.729 | 0.827 | 0.995 | 1.163 | 1.372
313.15 K | 0.404 | 0.458 | 0.519 | 0.592 | 0.678 | 0.762 | 0.907 | 1.054 | 1.231

CCI + CCOC(C)=O
Settings | viscosity [mPa·s]
298.15 K, 101 kPa, x2 = 0.7859 | 0.462

O=[N+]([O-])c1ccccc1 + CCOC(C)=O
viscosity [mPa·s], 101 kPa
Settings | 298.15 K | 308.15 K
x1 = 0.1753 | 0.582 | –
x1 = 0.4777 | 0.889 | –
x1 = 0.6887 | 1.204 | –
x2 = 0.0466 | 1.71 | 1.482
x2 = 0.1486 | 1.535 | 1.346
x2 = 0.2512 | 1.364 | 1.208
x2 = 0.3117 | 1.204 | –
x2 = 0.3496 | 1.206 | 1.077
x2 = 0.4483 | 1.057 | 0.95
x2 = 0.4935 | 0.992 | 0.893
x2 = 0.5223 | 0.889 | –
x2 = 0.5538 | 0.909 | 0.821
x2 = 0.6497 | 0.785 | 0.711
x2 = 0.7513 | 0.666 | 0.604
x2 = 0.8247 | 0.582 | –
x2 = 0.8488 | 0.564 | 0.512
x2 = 0.9411 | 0.478 | 0.433

ClC(Cl)=C(Cl)Cl + CCOCCO
viscosity [mPa·s], 101.33 kPa
Settings | x1 = 0.1174 | x1 = 0.2104 | x1 = 0.323 | x1 = 0.4392 | x1 = 0.5276 | x1 = 0.6168 | x1 = 0.7085 | x1 = 0.8053 | x1 = 0.9054
303.15 K | 1.513 | 1.396 | 1.272 | 1.149 | 1.065 | 0.992 | 0.926 | 0.869 | 0.822
313.15 K | 1.201 | 1.132 | 1.049 | 0.968 | 0.91 | 0.857 | 0.809 | 0.769 | 0.739

CCCCCO + CN(C)C=O
298.15 K, 101 kPa
Settings | viscosity [mPa·s]
x2 = 0.4261 | 1.395
x2 = 0.5467 | 1.568

O=[N+]([O-])c1ccccc1 + CN(C)C=O
viscosity [mPa·s]
Settings | 298.15 K | 303.15 K | 308.15 K | 313.15 K
101.3 kPa, x1 = 0.0953 | 0.926 | 0.8671 | 0.8133 | 0.7628
101.3 kPa, x1 = 0.1999 | 1.026 | 0.9585 | 0.8949 | 0.8362
101.3 kPa, x1 = 0.3027 | 1.129 | 1.053 | 0.9803 | 0.9134
101.3 kPa, x1 = 0.4044 | 1.231 | 1.146 | 1.075 | 0.9878
101.3 kPa, x1 = 0.504 | 1.338 | 1.246 | 1.154 | 1.07
101.3 kPa, x1 = 0.6035 | 1.441 | 1.332 | 1.232 | 1.14
101.3 kPa, x1 = 0.7034 | 1.543 | 1.423 | 1.313 | 1.214
101.3 kPa, x1 = 0.8011 | 1.638 | 1.505 | 1.389 | 1.28
101.3 kPa, x1 = 0.8937 | 1.74 | 1.595 | 1.469 | 1.351
101.33 kPa, x2 = 0.1017 | – | 1.524 | – | 1.307
101.33 kPa, x2 = 0.2145 | – | 1.416 | – | 1.22
101.33 kPa, x2 = 0.3053 | – | 1.331 | – | –
101.33 kPa, x2 = 0.3083 | – | – | – | 1.157
101.33 kPa, x2 = 0.404 | – | 1.246 | – | 1.091
101.33 kPa, x2 = 0.5021 | – | 1.165 | – | 1.023
101.33 kPa, x2 = 0.6003 | – | 1.085 | – | 0.952
101.33 kPa, x2 = 0.6968 | – | 1.002 | – | 0.884
101.33 kPa, x2 = 0.7975 | – | 0.917 | – | 0.809
101.33 kPa, x2 = 0.8975 | – | 0.826 | – | 0.738

c1ccccc1 + CN(C)C=O
298.15 K
Settings | viscosity [mPa·s]
101 kPa, x1 = 0.0257 | 0.799
101 kPa, x1 = 0.0509 | 0.795
101 kPa, x1 = 0.1031 | 0.783
101 kPa, x1 = 0.1578 | 0.765
101 kPa, x1 = 0.2083 | 0.759
101 kPa, x1 = 0.2579 | 0.75
101 kPa, x1 = 0.3129 | 0.7455
101 kPa, x1 = 0.3651 | 0.739
101 kPa, x1 = 0.4202 | 0.725
101 kPa, x1 = 0.469 | 0.711
101 kPa, x1 = 0.5167 | 0.7175
101 kPa, x1 = 0.5779 | 0.7
101 kPa, x1 = 0.6247 | 0.697
101 kPa, x1 = 0.6758 | 0.6825
101 kPa, x1 = 0.7167 | 0.671
101 kPa, x1 = 0.7855 | 0.653
101 kPa, x1 = 0.8262 | 0.643
101 kPa, x1 = 0.8944 | 0.6255
101 kPa, x1 = 0.9372 | 0.615
101 kPa, x1 = 0.9409 | 0.614
101 kPa, x1 = 0.9761 | 0.605
101.33 kPa, x1 = 0.1225 | 0.7645
101.33 kPa, x1 = 0.2494 | 0.7375
101.33 kPa, x1 = 0.4823 | 0.6925
101.33 kPa, x1 = 0.6236 | 0.6672
101.33 kPa, x1 = 0.7499 | 0.6477
101.33 kPa, x1 = 0.8733 | 0.6245

CCCCCCC + CO
298.15 K
Settings | viscosity [mPa·s]
101 kPa, x1 = 0.01 | 0.535
101 kPa, x1 = 0.02 | 0.5317
101 kPa, x1 = 0.03 | 0.5293
101 kPa, x1 = 0.04 | 0.5277
101 kPa, x1 = 0.05 | 0.5257
101 kPa, x1 = 0.06 | 0.5246
101 kPa, x1 = 0.08 | 0.5247
101 kPa, x1 = 0.09 | 0.5214
101.33 kPa, x2 = 0.0171 | 0.401
101.33 kPa, x2 = 0.0593 | 0.401
101.33 kPa, x2 = 0.0865 | 0.404
101.33 kPa, x2 = 0.1148 | 0.403
101.33 kPa, x2 = 0.9043 | 0.548
101.33 kPa, x2 = 0.9241 | 0.549
101.33 kPa, x2 = 0.9474 | 0.552
101.33 kPa, x2 = 0.9653 | 0.554
101.33 kPa, x2 = 0.9765 | 0.553
